Data: ChEMBL document CHEMBL1201862, “PubChem BioAssay data set” (2004)
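Cultured in 96-well plates, cells were exposed to test compound for 48 hours across five concentrations. GI50 = concentration required for 50% inhibition of growth.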 The source made the active and inactive calls. Cut-off read from the data, not from the text of the source: active = GI50 up to about 1.1 µM and inactive = higher.

How the values were obtained:
Experiment in all cases: NCI anticancer screen, dose series, 48 h
786-0 = tested on: 786-0
A549 = tested on: A549
ACHN = tested on: ACHN
COLO 205 = tested on: COLO 205
DMS-114 = tested on: DMS-114
DMS-273 = tested on: DMS-273
EKVX = tested on: EKVX
HCC 2998 = tested on: HCC 2998
HCT-116 = tested on: HCT-116
HCT-15 = tested on: HCT-15
HOP-92 = tested on: HOP-92
HT-29 = tested on: HT-29
K562 = tested on: K562
KM-20L2 = tested on: KM-20L2
KM12 = tested on: KM12
LXFL 529 = tested on: LXFL 529
MOLT-4 = tested on: MOLT-4
Malme-3M = tested on: Malme-3M
NCI-H226 = tested on: NCI-H226
NCI-H23 = tested on: NCI-H23
OVCAR-5 = tested on: OVCAR-5
OVCAR-8 = tested on: OVCAR-8
RPMI-8226 = tested on: RPMI-8226
RXF 393 = tested on: RXF 393
SF-268 = tested on: SF-268
SF-295 = tested on: SF-295
SF-539 = tested on: SF-539
SK-MEL-28 = tested on: SK-MEL-28
SK-MEL-2 = tested on: SK-MEL-2
SN12C = tested on: SN12C
SNB-19 = tested on: SNB-19
SNB-78 = tested on: SNB-78
SR = tested on: SR
SW-620 = tested on: SW-620
TK-10 = tested on: TK-10
U-251 = tested on: U-251
UACC-257 = tested on: UACC-257
UO-31 = tested on: UO-31
A498 = tested on: A498
CCRF-CEM = tested on: CCRF-CEM
HL-60 = tested on: HL-60
HOP-62 = tested on: HOP-62
IGROV-1 = tested on: IGROV-1
M14 = tested on: M14
M19-MEL = tested on: M19-MEL
NCI-H460 = tested on: NCI-H460
NCI-H522 = tested on: NCI-H522
SK-OV-3 = tested on: SK-OV-3
UACC-62 = tested on: UACC-62

| Compound | GI50 (A549) | GI50 (ACHN) | GI50 (DMS-273) | GI50 (EKVX) | GI50 (HOP-92) | GI50 (HT-29) | GI50 (KM12) | GI50 (MOLT-4) | GI50 (NCI-H23) | GI50 (OVCAR-5) | GI50 (OVCAR-8) | GI50 (RXF 393) | GI50 (SF-268) | GI50 (SF-295) | GI50 (SK-MEL-28) | GI50 (SNB-19) | GI50 (SNB-78) | GI50 (SR) | GI50 (TK-10) | GI50 (U-251) | also measured |
| --- | --- | --- | --- | --- | --- | --- | --- | --- | --- | --- | --- | --- | --- | --- | --- | --- | --- | --- | --- | --- | --- |
| COC(=O)c1cc(Cl)ccc1NC(=O)C1CCCCC1 | > 100 µM (inactive) | > 100 µM (inactive) | > 100 µM (inactive) | > 100 µM (inactive) | 22.8 µM (inactive) | > 100 µM (inactive) | > 100 µM (inactive) | 23.2 µM (inactive) | > 100 µM (inactive) | > 100 µM (inactive) | > 100 µM (inactive) | 33.1 µM (inactive) | 48.1 µM (inactive) | > 100 µM (inactive) | > 100 µM (inactive) | > 100 µM (inactive) | > 100 µM (inactive) | > 100 µM (inactive) | 92.7 µM (inactive) | > 100 µM (inactive) | GI50 (786-0): > 100 µM (inactive); GI50 (COLO 205): > 100 µM (inactive); GI50 (DMS-114): > 100 µM (inactive); GI50 (HCC 2998): > 100 µM (inactive); GI50 (HCT-116): > 100 µM (inactive); GI50 (HCT-15): > 100 µM; GI50 (K562): > 100 µM (inactive); GI50 (KM-20L2): > 100 µM (inactive); GI50 (LXFL 529): > 100 µM (inactive); GI50 (Malme-3M): > 100 µM (inactive); GI50 (NCI-H226): > 100 µM (inactive); GI50 (RPMI-8226): > 100 µM (inactive); GI50 (SF-539): > 100 µM (inactive); GI50 (SK-MEL-2): > 100 µM (inactive); GI50 (SN12C): 74.6 µM (inactive); GI50 (SW-620): > 100 µM (inactive); GI50 (UACC-257): > 100 µM (inactive); GI50 (UO-31): 17.6 µM (inactive) |
| CC1(C(=O)Nc2ccc3ccccc3c2)CC2(C)CC(C)(C1)C(O)NC2=O (stereo unspecified) | > 100 µM (inactive) | > 100 µM (inactive) | > 100 µM (inactive) | > 100 µM (inactive) | > 100 µM (inactive) | > 100 µM (inactive) | > 100 µM (inactive) | > 100 µM (inactive) | > 100 µM (inactive) | > 100 µM (inactive) | 86.9 µM (inactive) | > 100 µM (inactive) | > 100 µM (inactive) | > 100 µM (inactive) | > 100 µM (inactive) | > 100 µM (inactive) | > 100 µM (inactive) | > 100 µM (inactive) | > 100 µM (inactive) | > 100 µM (inactive) | GI50 (A498): > 100 µM (inactive); GI50 (CCRF-CEM): > 100 µM (inactive); GI50 (HL-60): > 100 µM (inactive); GI50 (HOP-62): > 100 µM (inactive); GI50 (IGROV-1): > 100 µM (inactive); GI50 (M14): > 100 µM (inactive); GI50 (M19-MEL): > 100 µM (inactive); GI50 (NCI-H460): > 100 µM (inactive); GI50 (NCI-H522): > 100 µM (inactive); GI50 (SK-OV-3): > 100 µM (inactive); GI50 (UACC-257): 81.5 µM (inactive); GI50 (UACC-62): > 100 µM (inactive); GI50 (UO-31): > 100 µM (inactive) |
